Numbered stars: 1 amine (or outer) side, 2 acyl side, 3 side chain; on linkers, the order of the positions; unused ones are H or OH. Square brackets hold non-standard residues; d marks the D form. Peptide text beside a SMILES is read from it. * marks the point of attachment. 5FAM = O=C1OC2(c3ccc(O)cc3Oc3cc(O)ccc32)c2ccc(C(=O)*)cc21; NHCH2C6H4(4-CH2CONH2) = NC(=O)Cc1ccc(CN*)cc1; X1 = O=C(Cc1ccc(CN[*:1])cc1)[*:2]
Key:
ASGPR = biological target: T1, ASGPR (Homo sapiens, UniProt P07306); test: MST binding affinity of resynthesized NNP hits to ASGPR; details: read-out: KD of ASGPR hits by MST
T1 construct: purchased R&D Systems, Inc. 4394-AS
T1 sequence (P07306 1-291): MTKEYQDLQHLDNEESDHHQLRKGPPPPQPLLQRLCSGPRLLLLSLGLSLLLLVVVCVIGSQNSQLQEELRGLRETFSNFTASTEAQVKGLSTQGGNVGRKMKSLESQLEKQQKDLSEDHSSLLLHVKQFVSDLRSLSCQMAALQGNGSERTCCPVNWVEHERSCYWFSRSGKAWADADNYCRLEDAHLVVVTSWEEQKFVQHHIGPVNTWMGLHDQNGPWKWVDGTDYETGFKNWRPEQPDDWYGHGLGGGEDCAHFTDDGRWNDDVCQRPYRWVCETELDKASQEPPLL
Protocol: (§1) Hit binding affinity to various targets were determined using Microscale Thermophoresis (MST). MST experiments were performed on a Monolith NT.115pico (NanoTemper Technologies GmbH, Munich, Germany). Measurements were performed at room temperature, in triplicate with incubation periods of 15, 30 and 45 minutes. […] Targets were labeled using Nanotemper Monolith 2nd Generation Protein Labeling Kits. RED-MALEIMIDE (Maleimide-647-dye) labeling kit was used for K-Ras and RED-NHS (NHS-647-dye) labeling kit was used for IL-6, IL-6R, TNFα and ASGPR. The buffer for the ASGPR contained 20 mM HEPES pH 7.4, 150 mM NaCl, 10 mM MgCl2, 2 mM CaCl2, 0.05% Pluronic F-127, and 1 mM DTT; for IL-6 contained 20 mM HEPES pH 7.4, 150 mM KCl, 10 mM MgCl2, and 0.1% Pluronic F-127; for the soluble IL-6 receptor 20 mM HEPES pH 7.4, 150 mM NaCl, 10 mM MgCl2, and 0.05% Tween-20; for K-Ras 20 mM HEPES pH 7.4, 150 mM NaCl, 10 mM MgCl2, 0.05% Tween-20 and 1 mM DTT; for TNFα 10 mM HEPES pH 7.4, 150 mM NaCl, 10 mM MgCl2, 0.05% Polysorbate-20. Triplicate data was analyzed using MO.AffinityAnalysis software (NanoTemper Technologies GmbH).

[1] = tested on: HepG2 cells (high ASGPR expressing); test: ASGPR uptake assay, flow cytometry, HepG2; assay type: cell-based, human
Protocol: The HEK293T (human embryonic kidney cells) and human hepatoma HepG2 cells were grown according to the protocols provided by the American Type Culture Collection (ATCC). When cells reached cell were seeded at ˜1.5×10^5 cells/well in 24-well culture plate for the uptake assay. After at least 16 hours of culture to allow cell attach and equilibrate, the compound treatment was set up for the uptake assay.
The fluorescein-labeled NNPs or fluorescein-labeled N-acetylgalactosamine (GalNAc) recognizing ASGRPR were added to wells at indicated concentrations and incubated for 2 hours. Two plates were prepared for each treatment condition, one serving as 4 degrees C. no internalization control that was kept on ice during incubation, while the second plate was incubated at 37 degrees C. to allow for energy dependent internalization. Following the incubation period, all plates were placed on ice and washed three times with ice-cold PBS/3% BSA/2 mM EDTA and then lifted with trypsin. Cells were transferred to a 96-well round bottom plates in FACS buffer. Cells were then analyzed by flow cytometry using LSR-HJ with HTS sampler (BD Biosciences, San Jose, CA, USA). Data (mean fluorescence intensities) and further analyzed using Flowjo software (BD Biosciences, San Jose, CA, USA). The internalized fraction was expressed as the difference between the corresponding 4 degrees C. and 37 degrees C. MFIs as previously described.

[2] = tested on: ASGPR-mediated uptake in HepG2 cells; test: Competitive uptake assay with asialofetuin in HepG2; assay type: cell-based, human; details: test compound 0.3 μM; for Cellular uptake with 60 μM asialofetuin: 60 μM asialofetuin (200-fold excess); for Cellular uptake after pre-incubation with asialofetuin: asialofetuin 20 μM and 60 μM
Protocol: For the competitive uptake assay with the natural ligand of ASGPR (asialofetuin), cells were pre-incubated with 20 μM and 60 μM asialofetuin on ice or at 37 degrees C. for 1.5 hours, followed by the treatment with compounds for additional 2 hours before flow cytometric analysis as described above. The reduction of the uptake under asialofetuin competition was expressed by the percentage against the same treatment condition without asialofetuin.

IL-6 = biological target: T2, IL-6 (Homo sapiens, UniProt P05231); test: MST binding affinity of resynthesized NNP hits to IL-6; details: read-out: KD (nM) [95% conf. int], NNP2 library hit, target IL-6, one-site binding model
T2 construct: purchased Creative Biomart IL6-12H
Protocol: as §1

HepG2 cells = test: Confocal imaging of HepG2 cell uptake; assay type: cell-based, human
Protocol: More particularly, FIG. 11B illustrates cell uptake of GalNAc (positive control), two NNP hits (ASGPR-9-4 and ASGPR-9-6) and a non-hit NNP (KRAS-1-14, negative control) in HepG2 (high ASGPR expressing) verses HEK293 (low ASGPR expressing) cells lines. FIG. 11C illustrates competition uptake assay of GalNAc and two NNP hits (ASGPR-9-4 and ASGPR-9-6) in HepG2 cells after preincubation with different concentrations of asialofetuin (a naturally occurring serum protein ASGPR ligand). Decrease in cell uptake with increasing concentrations of asialofetuin indicates blocking of ASGPR-mediated uptake. FIG. 11D illustrates example confocal images 1113, 1115, 1117, 1119 of HepG2 cell uptake (scale: x20 for the images 1113, 1115, 1117 and x40 for the image 1119). FL=fluorescein label; Cell nucleus staining with DAPI (blue). No uptake with the blank sample (DMSO) is seen at 4 degrees C.

Row | Compound | Cellular uptake with 60 μM asialofetuin [2] | Cellular uptake after pre-incubation with asialofetuin [2] | Kd (IL-6) | also measured
1 | CC(C)C[C@H](NC(=O)CNC(=O)[C@@H](Cc1c[nH]cn1)NC(=O)[C@@H](CCCNC(=N)N)NC(=O)[C@H]1CCCN1C(=O)Cc1ccc(CNC(=O)[C@H](Cc2ccccc2)NC(=O)[C@@H](CO)NC(=O)[C@@H](CCCNC(=N)N)NC(=O)[C@H]2CCCN2C(=O)CNC(=O)Cc2ccc(CNC(=O)[C@H](CC(C)C)NC(=O)[C@@H](CCCNC(=N)N)NC(=O)[C@@H](CCCCN)NC(=O)[C@@H](CCC(=O)O)NC(=O)[C@@H](Cc3ccccc3)NC(=O)Cc3ccc(CNC(=O)[C@H](Cc4ccccc4)NC(=O)[C@@H](CO)NC(=O)[C@@H](CCC(=O)O)NC(=O)[C@H]4CCCN4C(=O)[C@@H](CC(C)C)NC(=O)c4ccc5c(c4)C(=O)OC54c5ccc(O)cc5Oc5cc(O)ccc54)cc3)cc2)cc1)C(=O)NCc1ccc(CC(=O)N[C@H](CCCNC(=N)N)C(=O)N[C@H](Cc2ccccc2)C(=O)N2CCC[C@@H]2C(=O)N[C@@H](C(=O)NCC(=O)NCc2ccc(CC(=O)N[C@H](CC(C)C)C(=O)N3CCC[C@@H]3C(=O)N[C@H](CCCNC(=N)N)C(=O)N[C@@H](C(=O)NCC(=O)NCc3ccc(CC(N)=O)cc3)[C@H](C)O)cc2)C(C)C)cc1 [ASGPR-9-4] (5FAM-[dL][dP][dE][dS]F[X1][dF][dE][dK][dR]L[X1]G[dP][dR][dS]F[X1][dP][dR][dH]GL[X1][dR][dF][dP][dV]G[X1][dL][dP][dR][dT]G-{NHCH2C6H4(4-CH2CONH2)}) | mostly abolished | decreased with increasing concentrations of asialofetuin | – | Kd (ASGPR): 230 nM; Internalization compared with positive control GalNAc ([1]; HepG2, flow cytometry): significantly higher than uptake of the positive control GalNAc; Internalization (cell uptake) in HepG2 ([1]; fluorescein-labeled compounds, flow cytometry, 2 hours): significantly higher in HepG2 cells compared to in HEK293 cells
2 | CC(C)C[C@H](NC(=O)[C@@H](CCCNC(=N)N)NC(=O)CNC(=O)Cc1ccc(CNC(=O)[C@H](CC(C)C)NC(=O)[C@@H](CC(C)C)NC(=O)[C@@H](Cc2ccc(O)cc2)NC(=O)c2ccc3c(c2)C(=O)OC32c3ccc(O)cc3Oc3cc(O)ccc32)cc1)C(=O)NCc1ccc(CC(=O)N[C@H](CCCNC(=N)N)C(=O)N[C@H](CO)C(=O)N[C@@H](Cc2ccccc2)C(=O)NCc2ccc(CC(=O)N[C@H](Cc3ccccc3)C(=O)N[C@H](CCCNC(=N)N)C(=O)N[C@@H](C)C(=O)NCc3ccc(CC(=O)N[C@H](CCC(=O)O)C(=O)N[C@H](CCCCN)C(=O)N[C@@H](Cc4ccccc4)C(=O)NCc4ccc(CC(=O)N[C@H](CCC(=O)O)C(=O)N[C@H](CCCNC(=N)N)C(=O)N[C@@H](CC(C)C)C(=O)NCc5ccc(CC(=O)N[C@H](C)C(=O)N[C@H](CCCNC(=N)N)C(=O)N[C@@H](CC(C)C)C(=O)NCc6ccc(CC(=O)N7CCC[C@@H]7C(=O)N[C@H](CCCNC(=N)N)C(=O)N[C@@H](C)C(=O)NCc7ccc(CC(=O)N[C@H](Cc8ccc(O)cc8)C(=O)N[C@H](CCCNC(=N)N)C(=O)N[C@@H](Cc8ccccc8)C(=O)NCc8ccc(CC(N)=O)cc8)cc7)cc6)cc5)cc4)cc3)cc2)cc1 [IL6-65-7, Fluorescein-(D)Tyr-(D)Leu-(L)Leu-PAM-Gly-(D)Arg-(L)Leu-PAM-(D)Arg-(D)Ser-(L)Phe-PAM-(D)Phe-(D)Arg-(L)Ala-PAM-(D)Glu-(D)Lys-(L)Phe-PAM-(D)Glu-(D)Arg-(L)Leu-PAM-(D)Ala-(D)Arg-(L)Leu- PAM-(D)Pro-(D)Arg-(L)Ala-PAM-(D)Tyr-(D)Arg-(L)Phe-PAM] (5FAM-[dY][dL]L[X1]G[dR]L[X1][dR][dS]F[X1][dF][dR]A[X1][dE][dK]F[X1][dE][dR]L[X1][dA][dR]L[X1][dP][dR]A[X1][dY][dR]F-{NHCH2C6H4(4-CH2CONH2)}) | – | – | 210 nM | –
3 | CC(C)C[C@H](NC(=O)[C@@H](CCCNC(=N)N)NC(=O)CNC(=O)Cc1ccc(CNC(=O)[C@H](CC(C)C)NC(=O)[C@@H](CC(C)C)NC(=O)[C@@H](Cc2ccc(O)cc2)NC(=O)c2ccc3c(c2)C(=O)OC32c3ccc(O)cc3Oc3cc(O)ccc32)cc1)C(=O)NCc1ccc(CC(=O)N[C@H](CCCNC(=N)N)C(=O)N[C@H](CO)C(=O)N[C@@H](Cc2ccccc2)C(=O)NCc2ccc(CC(=O)N3CCC[C@@H]3C(=O)N[C@H](CCCNC(=N)N)C(=O)N[C@H](C(=O)NCc3ccc(CC(=O)N[C@H](Cc4c[nH]c5ccccc45)C(=O)N[C@H](CCCNC(=N)N)C(=O)N[C@H](C(=O)NCc4ccc(CC(=O)N[C@H](CC(N)=O)C(=O)N[C@H](CCCNC(=N)N)C(=O)N[C@@H](Cc5ccccc5)C(=O)NCc5ccc(CC(=O)N[C@H](CCC(=O)O)C(=O)N[C@H](Cc6ccc(O)cc6)C(=O)N[C@H](C(=O)NCc6ccc(CC(=O)N7CCC[C@@H]7C(=O)N[C@H](CCCNC(=N)N)C(=O)N[C@@H](C)C(=O)NCc7ccc(CC(=O)N[C@H](Cc8ccc(O)cc8)C(=O)N[C@H](CCCNC(=N)N)C(=O)N[C@@H](Cc8ccccc8)C(=O)NCc8ccc(CC(N)=O)cc8)cc7)cc6)C(C)C)cc5)cc4)C(C)C)cc3)C(C)C)cc2)cc1 [IL6-65-11, Fluorescein-(D)Tyr-(D)Leu-(L)Leu-PAM-Gly-(D)Arg-(L)Leu-PAM-(D)Arg-(D)Ser-(L)Phe-PAM-(D)Pro-(D)Arg-(L)Val-PAM-(D)Trp-(D)Arg-(L)Val-PAM-(D)Asn-(D)Arg-(L)Phe-PAM-(D)Glu-(D)Tyr-(L)Val- PAM-(D)Pro-(D)Arg-(L)Ala-PAM-(D)Tyr-(D)Arg-(L)Phe-PAM] (5FAM-[dY][dL]L[X1]G[dR]L[X1][dR][dS]F[X1][dP][dR]V[X1][dW][dR]V[X1][dN][dR]F[X1][dE][dY]V[X1][dP][dR]A[X1][dY][dR]F-{NHCH2C6H4(4-CH2CONH2)}) | – | – | 25 nM | –
4 | THA-(GalNAc)3-(OH)9-1,3-propanediamine-fluorescein [reference compound] | mostly abolished | decreased with increasing concentrations of asialofetuin | – | HepG2 cell uptake, confocal images, 4 degrees C. (HepG2 cells; 4 degrees C.): no uptake; HepG2 cell uptake, confocal images, 37 degrees C. (HepG2 cells; 37 degrees C.): is seen at 37 °C
